Settings: in n-octanol

Cc1ccccc1C(=O)O
Settings | solubility (mole fraction)
297.15 K | 0.155
299.65 K | 0.165
301.15 K | 0.18
302.65 K | 0.19
304.75 K | 0.196
305.35 K | 0.197
306.25 K | 0.2
306.95 K | 0.208
308.95 K | 0.219
310.65 K | 0.23
312.25 K | 0.239
314.05 K | 0.25
315.75 K | 0.26
316.95 K | 0.271
318.75 K | 0.281
320.35 K | 0.294
321.55 K | 0.305

Cc1ccc(C(=O)O)cc1
Settings | solubility (mole fraction)
297.35 K | 0.0595
298.05 K | 0.0608
298.95 K | 0.0618
301.65 K | 0.0663
307.25 K | 0.0767
308.65 K | 0.0789
309.65 K | 0.0816
312.95 K | 0.0871
314.35 K | 0.0896
315.8 K | 0.0925
317.65 K | 0.0962
319.65 K | 0.0997
320.4 K | 0.101
321.55 K | 0.103
322.15 K | 0.104

O=C(O)c1ccccc1[N+](=O)[O-]
Settings | solubility (mole fraction)
297.15 K | 0.0761
299.65 K | 0.0806
300.15 K | 0.084
302.05 K | 0.0895
303.15 K | 0.0928
306.15 K | 0.101
307.15 K | 0.104
308.35 K | 0.108
309.25 K | 0.113
310.15 K | 0.117
311.75 K | 0.122
313.15 K | 0.129
314.85 K | 0.135
317.15 K | 0.141
318.65 K | 0.147
319.85 K | 0.154
321.15 K | 0.161

O=C(O)c1ccc(O)cc1
Settings | solubility (mole fraction)
297.65 K | 0.105
299.95 K | 0.107
301.45 K | 0.109
302.85 K | 0.11
304.25 K | 0.112
305.85 K | 0.113
306.95 K | 0.115
308.15 K | 0.116
309.85 K | 0.117
311.25 K | 0.119
313.15 K | 0.121
315.45 K | 0.122
317.25 K | 0.124
318.65 K | 0.126
320.55 K | 0.128
322.25 K | 0.13

O=C(O)c1ccccc1
Settings | solubility (mole fraction)
300.15 K | 0.192

Reference: BigSolDB 2.1
